One compound from US11572590B2, “Methods for evaluating tumor cell spheroids using 3D microfluidic cell culture device” (Dana-Farber Cancer Institute, Inc., priority 2017, dated 2023) can be followed below.

What all share (assay): SelectScreen Kinase Profiling, single point inhibition and IC50 for off-target kinases
What all share (type): biochemical

Test [1] deals with off-target kinases (Homo sapiens, UniProt Q9UPE1). Conditions: STK23 (MSSK1), ZLYTE, ATP Km app.
Test [2] deals with off-target kinases (Homo sapiens, UniProt P15056, V600E). Conditions: BRAF V599E.
The target of test [3] is off-target kinases (Homo sapiens, UniProt P10721). The conditions noted are these: KIT, ZLYTE, ATP Km app.
Test [4] has as its target off-target kinases (Homo sapiens, UniProt Q08345). The conditions noted are these: DDR1, LanthaScreen Binding.
The target of test [5] is off-target kinases (Homo sapiens, UniProt P16234, T674I). The conditions noted are these: PDGFRA T674I, mutant y, ZLYTE, ATP Km app.
In test [6] the target is off-target kinases (Homo sapiens, UniProt Q9Y2K2). The conditions noted are these: SIK3, LanthaScreen Binding.

Read-outs that look alike come from different tables or passages of the source.

off-target kinases (Homo sapiens, UniProt Q9UPE1), sequence (Q9UPE1 whole entry): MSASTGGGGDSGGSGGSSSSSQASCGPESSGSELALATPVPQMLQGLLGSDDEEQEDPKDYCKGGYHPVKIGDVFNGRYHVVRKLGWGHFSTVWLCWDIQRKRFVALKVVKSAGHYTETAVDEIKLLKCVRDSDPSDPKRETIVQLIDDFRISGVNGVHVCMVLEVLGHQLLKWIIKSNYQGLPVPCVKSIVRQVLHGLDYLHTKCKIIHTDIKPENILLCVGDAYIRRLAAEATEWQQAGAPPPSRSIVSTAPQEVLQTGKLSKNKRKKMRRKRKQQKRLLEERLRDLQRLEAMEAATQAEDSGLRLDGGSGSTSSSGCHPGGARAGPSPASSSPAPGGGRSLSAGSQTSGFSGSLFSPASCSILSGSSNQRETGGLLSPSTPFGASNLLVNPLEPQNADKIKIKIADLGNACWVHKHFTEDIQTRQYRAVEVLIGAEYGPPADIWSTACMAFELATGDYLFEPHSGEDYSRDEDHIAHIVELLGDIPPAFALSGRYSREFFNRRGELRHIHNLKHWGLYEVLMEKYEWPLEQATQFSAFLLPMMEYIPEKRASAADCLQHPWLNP
off-target kinases (Homo sapiens, UniProt P15056, V600E), sequence (P15056 whole entry V600E): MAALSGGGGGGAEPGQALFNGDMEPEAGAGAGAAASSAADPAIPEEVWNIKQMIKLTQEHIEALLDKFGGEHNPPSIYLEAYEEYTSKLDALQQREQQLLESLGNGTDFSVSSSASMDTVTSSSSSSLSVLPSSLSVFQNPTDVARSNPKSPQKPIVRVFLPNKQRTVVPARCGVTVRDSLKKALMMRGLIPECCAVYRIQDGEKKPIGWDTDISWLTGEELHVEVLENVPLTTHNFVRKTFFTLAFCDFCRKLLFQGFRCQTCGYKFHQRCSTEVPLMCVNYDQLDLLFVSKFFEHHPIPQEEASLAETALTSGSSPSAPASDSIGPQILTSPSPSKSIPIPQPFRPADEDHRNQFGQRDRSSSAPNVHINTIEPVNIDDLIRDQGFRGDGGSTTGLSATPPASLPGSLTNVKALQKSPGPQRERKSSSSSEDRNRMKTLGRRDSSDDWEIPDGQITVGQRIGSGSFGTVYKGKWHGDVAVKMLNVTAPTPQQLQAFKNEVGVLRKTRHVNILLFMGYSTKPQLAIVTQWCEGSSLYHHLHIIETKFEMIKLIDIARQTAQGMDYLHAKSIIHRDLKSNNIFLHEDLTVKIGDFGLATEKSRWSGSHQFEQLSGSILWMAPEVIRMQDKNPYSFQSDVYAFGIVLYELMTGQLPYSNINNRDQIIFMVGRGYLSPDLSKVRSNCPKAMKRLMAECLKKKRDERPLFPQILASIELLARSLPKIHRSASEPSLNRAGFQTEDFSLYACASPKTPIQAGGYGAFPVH
off-target kinases (Homo sapiens, UniProt Q08345), sequence (Q08345 19-913): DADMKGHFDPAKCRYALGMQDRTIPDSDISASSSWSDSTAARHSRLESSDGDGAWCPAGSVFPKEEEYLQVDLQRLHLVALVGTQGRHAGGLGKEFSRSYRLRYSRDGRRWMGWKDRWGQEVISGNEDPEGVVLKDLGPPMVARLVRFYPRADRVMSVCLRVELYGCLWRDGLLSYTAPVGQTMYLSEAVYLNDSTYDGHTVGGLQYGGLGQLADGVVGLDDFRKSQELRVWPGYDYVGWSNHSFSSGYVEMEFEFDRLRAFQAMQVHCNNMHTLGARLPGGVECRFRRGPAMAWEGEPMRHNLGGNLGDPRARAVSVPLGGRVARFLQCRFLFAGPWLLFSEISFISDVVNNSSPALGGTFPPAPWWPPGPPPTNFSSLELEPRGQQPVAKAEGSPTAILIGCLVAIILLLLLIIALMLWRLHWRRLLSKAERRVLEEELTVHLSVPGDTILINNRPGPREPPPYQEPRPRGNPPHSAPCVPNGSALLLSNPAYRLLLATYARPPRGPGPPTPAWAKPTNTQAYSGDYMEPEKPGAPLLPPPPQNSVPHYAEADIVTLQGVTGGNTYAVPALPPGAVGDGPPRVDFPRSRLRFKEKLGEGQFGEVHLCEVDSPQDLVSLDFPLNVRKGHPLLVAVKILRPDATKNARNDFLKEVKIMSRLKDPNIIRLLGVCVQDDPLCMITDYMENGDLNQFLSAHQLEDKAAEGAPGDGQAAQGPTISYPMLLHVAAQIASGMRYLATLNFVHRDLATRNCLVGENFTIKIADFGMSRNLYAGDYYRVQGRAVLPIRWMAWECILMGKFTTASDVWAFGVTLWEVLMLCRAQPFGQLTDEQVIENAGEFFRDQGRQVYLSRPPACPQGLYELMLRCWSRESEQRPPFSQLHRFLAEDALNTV
off-target kinases (Homo sapiens, UniProt Q9Y2K2), sequence (Q9Y2K2 whole entry): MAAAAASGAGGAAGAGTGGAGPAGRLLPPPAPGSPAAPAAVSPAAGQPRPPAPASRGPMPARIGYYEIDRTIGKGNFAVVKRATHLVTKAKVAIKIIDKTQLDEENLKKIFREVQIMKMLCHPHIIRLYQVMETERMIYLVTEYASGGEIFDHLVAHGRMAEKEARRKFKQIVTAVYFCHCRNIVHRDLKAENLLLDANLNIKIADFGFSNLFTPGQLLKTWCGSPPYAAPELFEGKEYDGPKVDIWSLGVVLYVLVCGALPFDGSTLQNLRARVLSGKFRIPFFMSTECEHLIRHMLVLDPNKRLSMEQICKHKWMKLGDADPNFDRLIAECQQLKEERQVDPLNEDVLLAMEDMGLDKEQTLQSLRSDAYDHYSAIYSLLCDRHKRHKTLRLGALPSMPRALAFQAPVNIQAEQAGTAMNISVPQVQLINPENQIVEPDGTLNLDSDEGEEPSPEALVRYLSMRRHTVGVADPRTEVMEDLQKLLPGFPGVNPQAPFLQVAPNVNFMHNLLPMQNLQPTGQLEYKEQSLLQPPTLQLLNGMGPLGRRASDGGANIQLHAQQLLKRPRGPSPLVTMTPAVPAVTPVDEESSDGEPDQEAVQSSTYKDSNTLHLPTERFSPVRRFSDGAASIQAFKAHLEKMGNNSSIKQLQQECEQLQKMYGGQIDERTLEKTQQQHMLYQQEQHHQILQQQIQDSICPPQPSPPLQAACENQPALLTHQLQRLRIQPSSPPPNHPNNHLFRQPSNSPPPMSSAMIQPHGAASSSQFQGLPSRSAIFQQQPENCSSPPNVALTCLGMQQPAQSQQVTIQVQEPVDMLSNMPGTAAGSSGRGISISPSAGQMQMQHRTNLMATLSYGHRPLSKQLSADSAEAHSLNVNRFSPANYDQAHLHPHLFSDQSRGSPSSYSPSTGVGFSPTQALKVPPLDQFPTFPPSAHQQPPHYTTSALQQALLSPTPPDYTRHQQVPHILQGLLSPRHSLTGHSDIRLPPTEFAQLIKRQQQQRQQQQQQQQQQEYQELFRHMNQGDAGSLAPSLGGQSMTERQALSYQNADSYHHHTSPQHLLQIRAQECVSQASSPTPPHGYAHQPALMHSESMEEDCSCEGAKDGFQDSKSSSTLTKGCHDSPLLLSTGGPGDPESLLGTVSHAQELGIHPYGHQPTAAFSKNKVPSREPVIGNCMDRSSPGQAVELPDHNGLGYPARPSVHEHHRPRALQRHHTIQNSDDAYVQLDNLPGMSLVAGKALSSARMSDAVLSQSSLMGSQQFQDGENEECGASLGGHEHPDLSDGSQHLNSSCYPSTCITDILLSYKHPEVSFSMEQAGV
off-target kinases (Homo sapiens, UniProt P10721), sequence (P10721 26-976): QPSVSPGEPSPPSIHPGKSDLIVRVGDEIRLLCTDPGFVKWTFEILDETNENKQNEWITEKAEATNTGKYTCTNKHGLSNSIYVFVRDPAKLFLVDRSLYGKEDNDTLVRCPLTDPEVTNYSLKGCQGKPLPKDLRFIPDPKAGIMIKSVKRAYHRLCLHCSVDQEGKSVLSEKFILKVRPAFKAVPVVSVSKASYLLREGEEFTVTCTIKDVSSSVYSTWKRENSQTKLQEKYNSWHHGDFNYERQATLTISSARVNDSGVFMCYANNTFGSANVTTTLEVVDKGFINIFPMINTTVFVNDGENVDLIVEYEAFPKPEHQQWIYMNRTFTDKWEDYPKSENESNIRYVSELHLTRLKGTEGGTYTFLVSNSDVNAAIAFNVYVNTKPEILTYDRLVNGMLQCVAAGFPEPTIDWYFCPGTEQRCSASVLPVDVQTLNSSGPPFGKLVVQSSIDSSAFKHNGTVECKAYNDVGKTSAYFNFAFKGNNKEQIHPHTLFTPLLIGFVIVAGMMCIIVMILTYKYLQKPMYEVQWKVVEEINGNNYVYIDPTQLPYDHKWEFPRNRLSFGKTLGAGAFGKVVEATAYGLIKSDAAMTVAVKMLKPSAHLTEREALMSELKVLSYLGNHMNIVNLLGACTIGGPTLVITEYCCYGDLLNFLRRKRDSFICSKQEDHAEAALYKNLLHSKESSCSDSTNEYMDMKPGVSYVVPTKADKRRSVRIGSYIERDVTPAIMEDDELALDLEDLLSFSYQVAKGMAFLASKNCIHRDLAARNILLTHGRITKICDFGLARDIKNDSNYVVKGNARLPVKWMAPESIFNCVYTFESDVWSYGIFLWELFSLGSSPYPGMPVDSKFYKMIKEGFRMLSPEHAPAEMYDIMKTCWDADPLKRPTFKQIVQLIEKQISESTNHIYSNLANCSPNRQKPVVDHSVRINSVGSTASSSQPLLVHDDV

Regarding `N#Cc1cc(-c2ncnc(Nc3ccc(N4CCN(C5COC5)CC4)cc3)n2)ccc1OC1CCOCC1` [Compound 1, 5-(4-((4-(4-(oxetan-3-yl)piperazin-1-yl)phenyl)amino)-1,3,5-triazin-2-yl)-2-((tetrahydro-2H-pyran-4-yl)oxy)benzonitrile], the inhibition is 2% on off-target kinases [1] (read-out: % Inhibition 1); 1% at off-target kinases [1] (read-out: % Inhibition 2); 2% at off-target kinases [1] (read-out: % Inhibition Avg); 63% on off-target kinases [2] (ATP 100, ZLYTE, read-out: % Inhibition 1); 61% on off-target kinases [2] (ATP 100, ZLYTE, read-out: % Inhibition 2); 62% at off-target kinases [2] (ATP 100, ZLYTE, read-out: % Inhibition Avg). The inhibition at off-target kinases [2] (LanthaScreen Binding, read-out: % Inhibition 1) was determined as 50%; at off-target kinases [2] (LanthaScreen Binding, read-out: % Inhibition 2), 53%; at off-target kinases [2] (LanthaScreen Binding, read-out: % Inhibition Avg) it was 52%; on off-target kinases [3] (read-out: % Inhibition 1) it was 1%; at off-target kinases [3] (read-out: % Inhibition 2) it was 5%; at off-target kinases [3] (read-out: % Inhibition Avg), 3%. Further, the inhibition on off-target kinases [4] (read-out: % Inhibition 1) is 3%; on off-target kinases [4] (read-out: % Inhibition 2), 2%; at off-target kinases [4] (read-out: % Inhibition Avg), 2%; at off-target kinases [5] (read-out: % Inhibition 1), 40%; at off-target kinases [5] (read-out: % Inhibition 2), 32%; at off-target kinases [5] (read-out: % Inhibition Avg), 36%. The inhibition at off-target kinases [6] (read-out: % Inhibition 1) was 98%; at off-target kinases [6] (read-out: % Inhibition 2) it was 95%; on off-target kinases [6] (read-out: % Inhibition Avg) it was 96%.
